Read-outs that look alike come from different tables or passages of the source.
Key:
[1] = system: cGAS activity in Reporter THP1 cell line; assay: Cellular assay to measure cGAS activity: ISRE-Gaussia luciferase reporter THP1 cells transfected with ISD; format: cell-based; details: Homo sapiens
Procedure: Cellular assay to measure cGAS activity: Reporter THP1 cell line harboring a gene encoding Gaussia Luciferase under the control of 5 tandem repeats of interferon-stimulated response elements (ISRE) fused to an ISG54 minimal promoter was used to test inhibition of cGAS activity by synthetic compounds in human cells. These cells were plated on 96-well plates at 0.3×10^6/well and incubated with serial dilutions of compounds or DMSO for 5 min, followed by transfection of 2 μg/mL of ISD (Interferon Stimulatory DNA, a 45 bp DNA oligo) or mock transfected using lipofectamine 2000 (Life Technology) method, according to manufacturer's instructions. 16 hours later, 15 μL of the media from each well was transferred to a new plate, 50 μL of solution containing 50 mM Hepes-NaOH, pH 6.5, 50 mM NaCl, 10 mM EDTA, 1 μM of coelenterazine was added to each well and luminescence was measured immediately. Fold increase in luminescence compared to mock transfection was plotted against concentrations of each compound, and IC50 is calculated using Graphpad. To evaluate the specificity of a compound, the same procedure was performed except that cells were transfected with 2 μg/mL poly(I:C) or infected with Sendai Virus (SeV) at 50 Unit/mL, which are known to activate the RIG-I-MAVS pathway. A specific inhibitory compound should inhibit interferon induction by DNA but have minimal effect on poly(I:C) or Sendai virus induced interferon reporter gene expression.
The letter codes for cGAS IC50 include: A (<2 μM); B (2-10 μM); C (>10 μM).

[2] = biological target: T1, recombinant human cGAS (aa147-522) (Homo sapiens, UniProt Q8N884); assay: In vitro inhibition assay of cGAS activity (ATP consumption, KinaseGlo Max); format: biochemical
T1 construct: recombinant human cGAS (aa147-522); His6-SUMO (cleaved yes); made in house; host or cells: E. coli BL21/pLys
How it was run: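 De-tagged recombinant human cGAS (aa147-522, 1.5 μg/mL) was incubated 20 min at 37 °C with herring testis DNA, 6.6 μM ATP and 0.1 mM GTP in Tris pH 7.5/MgCl2 buffer plus serial compound dilutions. Remaining ATP was read by KinaseGlo Max luminescence, and IC50 was fitted from % ATP consumption versus log concentration.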

[3] = THP-1, untitled table after Table 4 (continuation)
[4] = Table 3, read-out: cGAS Inhibition Results IC50
[5] = THP-1, Table 4, Gaussia luciferase
[6] = Table 2, read-out: cGAS Inhibition Results IC50

T1 sequence (Q8N884 147-522): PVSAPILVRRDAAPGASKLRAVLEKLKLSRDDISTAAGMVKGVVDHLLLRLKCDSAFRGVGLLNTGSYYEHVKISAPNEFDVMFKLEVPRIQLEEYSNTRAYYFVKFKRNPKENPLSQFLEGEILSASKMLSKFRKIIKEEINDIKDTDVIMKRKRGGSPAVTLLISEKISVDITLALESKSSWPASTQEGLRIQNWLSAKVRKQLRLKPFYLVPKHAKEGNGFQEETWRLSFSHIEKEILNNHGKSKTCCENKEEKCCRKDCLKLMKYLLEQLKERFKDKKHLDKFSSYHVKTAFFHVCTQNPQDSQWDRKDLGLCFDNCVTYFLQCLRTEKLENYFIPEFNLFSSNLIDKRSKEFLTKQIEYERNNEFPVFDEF

IC50 [1, 3] [µM] | IC50 [2, 4] [µM] | IC50 [1, 5] [µM] | IC50 [2, 6] [µM] | SMILES
> 10 | < 2 |  |  | O=C(O)[C@@H]1[C@H](CO)CCN1c1cc(-n2ccnc2)c2ccc(Cl)c(Cl)c2n1 (racemic) [I-782, 1-(7,8-dichloro-4-(1H-imidazol-1-yl)quinolin-2-yl)-3-(hydroxymethyl)pyrrolidine-2-carboxylic acid]
< 2 |  |  |  | O=C(O)CCOC[C@@H]1[C@@H]2CC2CN1c1cc(-n2ccnc2)c2ccc(Cl)c(Cl)c2n1 (stereo in doubt) [I-809]
 |  | > 10 | < 2 | COc1ccc(-c2cc(-n3ccnc3)c3ccc(Cl)cc3n2)cc1C(=O)O [I-15]
 |  | 2 to 10 | < 2 | COc1cc(C(=O)O)cc(-c2cc(-n3ccnc3)c3ccc(Cl)cc3n2)c1 [I-24, 3-(7-chloro-4-(1H-imidazol-1-yl)quinolin-2-yl)-5-methoxybenzoic acid]
 |  | 2 to 10 | < 2 | COc1ccc(-c2cc(-n3ccnc3)c3ccc(Cl)c(Cl)c3n2)cc1C(=O)O [I-39]
 |  | 2 to 10 | < 2 | O=C1CN(c2cc(-n3ccnc3)c3ccc(Cl)c(Cl)c3n2)CCCN1 [I-86]
 |  | > 10 | < 2 | O=C(O)C1COCCN1c1cc(-n2ccnc2)c2ccc(Cl)c(Cl)c2n1 (stereo not drawn) [I-92]
 |  | 2 to 10 | < 2 | NS(=O)(=O)C1CCCN(c2cc(-n3ccnc3)c3ccc(Cl)c(Cl)c3n2)C1 (stereo not drawn) [I-116]
 |  | 2 to 10 | < 2 | OC[C@@H]1CCCN1c1cc(-n2ccnc2)c2ccc(Cl)c(Cl)c2n1 [I-139]
 |  | > 10 | < 2 | NS(=O)(=O)CC1CCN(c2cc(-n3ccnc3)c3ccc(Cl)c(Cl)c3n2)C1 (stereo not drawn) [I-149]
 |  | < 2 | < 2 | NS(=O)(=O)CCNc1cc(-n2ccnc2)c2ccc(Cl)c(Cl)c2n1 [I-200]
 |  | > 10 | < 2 | O=C(O)[C@@H]1C[C@@H](F)CN1c1cc(-n2ccnc2)c2ccc(Cl)c(Cl)c2n1 [I-322]
 |  | 2 to 10 | < 2 | O=C(O)[C@@H]1CCCN1c1cc(-n2ccnc2)c2ccc(Cl)c(Cl)c2n1 [I-428]
 |  | > 10 | < 2 | O=C(O)[C@@H]1[C@H](O)CCN1c1cc(-n2ccnc2)c2ccc(Cl)c(Cl)c2n1 [I-429]
 |  | 2 to 10 | < 2 | O=C(O)[C@@H]1CCCN1c1cc(-c2cn[nH]c2)c2ccc(Cl)c(Cl)c2n1 [I-435]
 |  | 2 to 10 | < 2 | O=C(O)C[C@@H]1CCCN1c1cc(-n2ccnc2)c2ccc(Cl)c(Cl)c2n1 [I-443]
 |  | > 10 | < 2 | NC(=O)[C@@H]1CCCN1c1cc(-n2ccnc2)c2ccc(Cl)c(Cl)c2n1 [I-448]
 | < 2 | > 10 |  | O=C(O)C[C@@H]1CCN1c1cc(-n2ccnc2)c2ccc(Cl)c(Cl)c2n1 [I-461]
 | 2 to 30 | 2 to 10 |  | Clc1ccc2c(-n3ccnc3)cc(N3CCCC3c3ncc[nH]3)nc2c1Cl (stereo not drawn) [I-467]

IC50 [1, 3] [µM] | IC50 [2, 4] [µM] | IC50 [1, 5] [µM] | IC50 [2, 6] [µM] | SMILES
 | < 2 | < 2 |  | O=C(O)[C@@H]1C[C@@H]2C[C@@H]2N1c1cc(-n2ccnc2)c2ccc(Cl)c(Cl)c2n1 [I-469]
 | < 2 | 2 to 10 |  | O=C(O)[C@@H]1[C@@H]2C[C@@H]2CN1c1cc(-n2ccnc2)c2ccc(Cl)c(Cl)c2n1 [I-470]
 | 2 to 30 | 2 to 10 |  | COC(=O)[C@@H]1[C@@H]2[C@H](CN1c1cc(-n3ccnc3)c3ccc(Cl)c(Cl)c3n1)C2(C)C [I-471]
 | < 2 | < 2 |  | CC1CCN(c2cc(-n3ccnc3)c3ccc(Cl)c(Cl)c3n2)C1C(=O)O (stereo not drawn) [I-473]
 | < 2 | 2 to 10 |  | C[C@H]1C[C@@H](C(=O)O)N(c2cc(-n3ccnc3)c3ccc(Cl)c(Cl)c3n2)C1 [I-477]
 | < 2 | 2 to 10 |  | O=C(O)[C@@H]1CC2(CC2)CN1c1cc(-n2ccnc2)c2ccc(Cl)c(Cl)c2n1 [I-478]
 |  | 2 to 10 |  | O=C(O)C1CC[C@H](c2ccccc2)N1c1cc(-n2ccnc2)c2ccc(Cl)c(Cl)c2n1 (stereo partly drawn) [I-487]
 | < 2 | 2 to 10 |  | C[C@H]1CC[C@@H](C(=O)O)N1c1cc(-n2ccnc2)c2ccc(Cl)c(Cl)c2n1 [I-507]
 | < 2 | > 10 |  | O=C(O)[C@@H]1[C@H]2CC[C@H](C2)N1c1cc(-n2ccnc2)c2ccc(Cl)c(Cl)c2n1 [I-516]
 | 2 to 30 | 2 to 10 |  | COC(=O)[C@H]1CCCN1C(=O)C[C@@H]1CCCN1c1cc(-n2ccnc2)c2ccc(Cl)c(Cl)c2n1 [I-532]
 | < 2 | 2 to 10 |  | NC(=O)CNC(=O)C[C@@H]1CCCN1c1cc(-n2ccnc2)c2ccc(Cl)c(Cl)c2n1 [I-539]
 | < 2 | < 2 |  | O=C(OCC(F)(F)F)[C@@H]1[C@@H](O)CCN1c1cc(-n2ccnc2)c2ccc(Cl)c(Cl)c2n1 [I-556]
 | 2 to 30 | 2 to 10 |  | COC(=O)[C@@H]1C[C@H](F)CN1c1cc(-n2ccnc2)c2ccc(Cl)c(Cl)c2n1 [I-575]
 | < 2 | < 2 |  | COC(=O)[C@@H]1CC2C[C@@H]2N1c1cc(-n2ccnc2)c2ccc(Cl)c(Cl)c2n1 (stereo partly drawn) [I-576]
 | 2 to 30 | 2 to 10 |  | COC(=O)[C@@H]1[C@@H]2C[C@@H]2CN1c1cc(-n2ccnc2)c2ccc(Cl)c(Cl)c2n1 [I-577]
 | 2 to 30 | 2 to 10 |  | COC(=O)C1C(C)CCN1c1cc(-n2ccnc2)c2ccc(Cl)c(Cl)c2n1 (stereo not drawn) [I-578]
 | < 2 | < 2 |  | COC(=O)[C@@H]1CC2(CC2)CN1c1cc(-n2ccnc2)c2ccc(Cl)c(Cl)c2n1 [I-582]
 | 2 to 30 | < 2 |  | COC(=O)[C@@H]1CC(C)(C)CN1c1cc(-n2ccnc2)c2ccc(Cl)c(Cl)c2n1 [I-583]
 | 2 to 30 | < 2 |  | COC(=O)[C@@H]1C[C@@H](C)CN1c1cc(-n2ccnc2)c2ccc(Cl)c(Cl)c2n1 [I-585]

IC50 [1, 3] [µM] | IC50 [2, 4] [µM] | IC50 [1, 5] [µM] | IC50 [2, 6] [µM] | SMILES
 | > 30 |  |  | Cc1cn(-c2cc(N3CCC[C@H]3COCCC(=O)O)nc3c(Cl)c(Cl)ccc23)cn1 [I-825, (S)-3-((1-(7,8-dichloro-4-(4-methyl-1H-imidazol-1-yl)quinolin-2-yl)pyrrolidin-2-yl)methoxy)propanoic acid]
 | > 30 |  |  | Cn1cc(-c2cc(N3CCC[C@H]3COCCC(=O)O)nc3c(Cl)c(Cl)ccc23)cn1 [I-826]
 | > 30 |  |  | O=C(O)CCOC[C@@H]1CCCN1c1ccc2ccc(Cl)c(Cl)c2n1 [I-827]
 | 2 to 30 |  |  | CN(CCCOc1ccc(Cl)cc1C(=O)O)c1cc(-n2ccnc2)c2ccc(Cl)c(Cl)c2n1 [I-847]
 | 2 to 30 |  |  | CC(C)N(CCCOc1ccc(Cl)cc1C(=O)O)c1cc(-n2ccnc2)c2ccc(Cl)c(Cl)c2n1 [I-848, 5-chloro-2-(3-((7,8-dichloro-4-(1H-imidazol-1-yl)quinolin-2-yl)(isopropyl)amino)propoxy) benzoic acid]
 | 2 to 30 |  |  | COc1ccc(OCCCN(c2cc(-n3ccnc3)c3ccc(Cl)c(Cl)c3n2)C(C)C)c(C(=O)O)c1 [I-849]
 | 2 to 30 |  |  | CC(C)N(CCCOc1cccc(F)c1C(=O)O)c1cc(-n2ccnc2)c2ccc(Cl)c(Cl)c2n1 [I-850]
 | 2 to 30 |  |  | CC(C)N(CCCOc1ccncc1C(=O)O)c1cc(-n2ccnc2)c2ccc(Cl)c(Cl)c2n1 [I-851]
 | 2 to 30 |  |  | CC(C)N(CCCOc1ccccc1C(=O)O)c1cc(-n2ccnc2)c2ccc(Cl)c(Cl)c2n1 [I-852]
 | > 30 |  |  | CC(C)(C)c1ccc2c(-n3ccnc3)cc(N3CCC[C@H]3COCCC(=O)O)nc2c1 [I-858]
 | 2 to 30 |  |  | COc1cccc2c(-c3cn[nH]c3)cc(N3CCC[C@H]3COCCC(=O)O)nc12 [I-859]
 | > 30 |  |  | CCOc1c(Cl)ccc2c(-n3ccnc3)cc(N3CCC[C@H]3COCCC(=O)O)nc12 [I-861]
 | > 30 |  |  | O=C(O)CCOC[C@@H]1CCCN1c1cc(-n2ccnc2)c2ccc(Cl)c(-c3ccccc3)c2n1 [I-863, (S)-3-((1-(7-chloro-4-(1H-imidazol-1-yl)-8-phenylquinolin-2-yl)pyrrolidin-2-yl)methoxy)propanoic acid]
 | 2 to 30 |  |  | COC(=O)[C@@H]1C[C@@H](OCCC(=O)O)CN1c1cc(-n2ccnc2)c2ccc(Cl)c(Cl)c2n1 [I-869]
 | 2 to 30 |  |  | COC(=O)[C@@H]1[C@@H](OCCC(=O)O)CCN1c1cc(-n2ccnc2)c2ccc(Cl)c(Cl)c2n1 [I-870]
 | 2 to 30 |  |  | COC(=O)[C@@H]1C[C@H](OCCC(=O)O)CN1c1cc(-n2ccnc2)c2ccc(Cl)c(Cl)c2n1 [I-871]
 | < 2 |  |  | O=C(O)CCOCC(CO)Nc1cc(-n2ccnc2)c2ccc(Cl)c(Cl)c2n1 (stereo not drawn) [I-873]
 | < 2 |  |  | O=C(O)CCOCC(COCCC(=O)O)Nc1cc(-n2ccnc2)c2ccc(Cl)c(Cl)c2n1 [I-874]
 | < 2 |  |  | O=C(O)Cc1csc(CNc2cc(-n3ccnc3)c3ccc(Cl)c(Cl)c3n2)n1 [I-881]

Reference: patent publication US11873291B2, “Quinoline cGAS antagonist compounds” (ImmuneSensor Therapeutics, Inc., priority 2020, dated 2024)
